Test results reported in patent US5593985A, “Cephalosporin compounds” (priority 1994, dated 1997).
In brackets after ≈: the same amount, converted by molar mass. Where two headings read alike, the source gives them in different places.

Key:
[1] = tested on: Streptococcus pyogenes A 308; assay: MIC, standard strain 1; assay type: cell-based; settings: A308, S. pyogenes A 308, two-fold dilution, Muller Hinton agar, 10^7 CFU/ml, 37° C., 18 hours, read-out: Minimal Inhibitory Concentration(MIC)
Experimental: (§1) In order to illustrate antibiotic effectiveness of the compounds of the present invention, the minimal inhibitory concentrations (MIC's) of the representative compounds were determined against standard strains and compared with ceftazidime and cefpirome, which were used as control compounds.
(§2) The MIC values were taken by employing a two-fold dilution method: that is, two-fold serial dilutions of each of the test compounds were made from initial concentration of […]; each 1.5 ml of them was dispersed in 13.5 ml of Muller Hinton agar medium to adjust to […]; the standard test strain which had the concentration of 10^7 CFU/ml was inoculated by medium;and these were incubated at 37° C. for 18 hours.
(§3) The test used twenty kinds of standard test strains which induced urinary tract infections, respiratory organ infections, skin soft tissue infections, plasma infections, gastrointestinal infections, central nervous system infections, most of which produce β-lactamase. The standard test strains used are as follows:
1. Streptococcus pyogenes A 308

Streptococcus faecium 8b = assay: MIC, standard strain 3; assay type: cell-based; settings: Enterococcus faecium; S. faecium 8b; two-fold dilution, Muller Hinton agar, 10^7 CFU/ml, 37° C., 18 hours; read-out: Minimal Inhibitory Concentration(MIC)
Experimental: as §1, §2, §3
3. Streptococcus faecium 8b

[2] = tested on: Staphylococcus aureus SG 511; assay: MIC, standard strain 4; assay type: cell-based; settings: read-out: Minimal Inhibitory Concentration(MIC)
Experimental: as §1, §2, §3
4. Staphylococcus aureus SG 511

[3] = tested on: Pseudomonas aeruginosa 9.027; assay: MIC, standard strain 12; assay type: cell-based; settings: Pseudomonas aeruginosa; P. aeruginosa 9.027; two-fold dilution, Muller Hinton agar, 10^7 CFU/ml, 37° C., 18 hours; read-out: Minimal Inhibitory Concentration(MIC)
Experimental: as §1, §2, §3
12. Pseudomonas aeruginosa 9.027

[4] = tested on: Pseudomonas aeruginosa 1771; assay: MIC, standard strain 14; assay type: cell-based; settings: Pseudomonas aeruginosa; P. aeruginosa 1771; two-fold dilution, Muller Hinton agar, 10^7 CFU/ml, 37° C., 18 hours; read-out: Minimal Inhibitory Concentration(MIC)
Experimental: as §1, §2, §3
14. Pseudomonas aeruginosa 1771

[5] = tested on: Enterobacter cloacae P 99; assay: MIC, standard strain 19; assay type: cell-based; settings: P99, 18 h, read-out: Minimal Inhibitory Concentration(MIC)
Experimental: as §1, §2, §3
19. Enterobacter cloacae P 99

[6] = tested on: Enterobacter cloacae 1321 E; assay: MIC, standard strain 20; assay type: cell-based; settings: E. cloacae 1321 E, two-fold dilution, Muller Hinton agar, 10^7 CFU/ml, 37° C., 18 hours, read-out: Minimal Inhibitory Concentration(MIC)
Experimental: as §1, §2, §3
20. Enterobacter cloacae 1321 E

ATCC = assay: MIC, clinically separated strains; assay type: cell-based; settings: 18 h; 20 strains
Experimental: as §2

D Streptococcus I = assay: MIC, clinically separated strains; assay type: cell-based; settings: 18 h; for MIC50 / MIC90: 20 clinical strains; for MIC: read-out: range of MIC, 20 clinical strains
Experimental: as §2

Enterococcus I = assay: MIC, clinically separated strains; assay type: cell-based; settings: 18 h; for MIC50 / MIC90: 20 clinical strains
Experimental: as §2

Escherichia coli = assay: MIC, clinically separated strains; assay type: cell-based; settings: 18 h; for MIC50 / MIC90: 20 clinical strains; for MIC: read-out: range of MIC, 20 clinical strains
Experimental: as §2

Klebsiella oxytoca = assay: MIC, clinically separated strains; assay type: cell-based; settings: 18 h; for MIC50 / MIC90: 20 clinical strains; for MIC: read-out: range of MIC, 20 clinical strains
Experimental: as §2

MRSA(KAIST) = assay: MIC, clinically separated strains; assay type: cell-based; settings: Staphylococcus aureus, 18 h; for MIC50 / MIC90: 15 clinical strains; for MIC: read-out: range of MIC, 15 clinical strains
Experimental: as §2

Methicillin Resistant = assay: MIC, clinically separated strains; assay type: cell-based; settings: 18 h, 19 clinical strains; for MIC: read-out: range of MIC
Experimental: as §2

Providencia rettgeri = assay: MIC, clinically separated strains; assay type: cell-based; settings: 18 h; for MIC: read-out: range of MIC, 6 clinical strains
Experimental: as §2

D StreptococcusII = assay: MIC, clinically separated strains; assay type: cell-based, D Streptococcus; settings: Streptococcus, 18 h; for MIC: read-out: range of MIC
Experimental: as §2

[7] = tested on: Streptococcus pyogens A77; assay: antibiotic activity against systemic infection in mice; assay type: in vivo; settings: A77, im, bacteria intraperitoneally, intramuscular injection, 5 to 0.078 mg/kg, probit method (confidence limit), read-out: PD50
Experimental: In order to illustrate clinical effectiveness of the compounds of the present invention more specifically, the stability to β-lactamase and antibiotic activity against systemic infection, were tested, and the results are shown in Table 4 and 5, respectively.
Antibiotic activity against systematic infection was tested by using mice: that is, 0.3 ml of a strain solution containing fatal dose of bacteria in 0.3 ml was administered to mice intraperitoneally; and then, the test antibiotics were administered intramuscularly in an amount of 5 to 0.078 mg/kg. PD50 was calculated by probit method.

acute toxicity test = settings: in vivo, iv
Pseudomonas = settings: compared with DQ-2556 or ceftazidime; cited from earlier work
[8] = tested on: Gram-negative and Gram-positive bacteria; settings: cited from earlier work

SMILES | MIC [1] [µg/mL] | MIC (Streptococcus faecium 8b) [µg/mL] | MIC [3] [µg/mL] | MIC [4] [µg/mL] | MIC [5] [µg/mL] | MIC [6] [µg/mL] | MIC50 (ATCC) [µg/mL] | MIC90 (ATCC) [µg/mL] | MIC50 (D Streptococcus I) [µg/mL] | MIC90 (D Streptococcus I) [µg/mL] | MIC (D Streptococcus I) [µg/mL] | MIC50 (Enterococcus I) [µg/mL] | MIC90 (Enterococcus I) [µg/mL] | MIC50 (Escherichia coli) [µg/mL] | MIC90 (Escherichia coli) [µg/mL] | MIC (Escherichia coli) [µg/mL] | MIC50 (Klebsiella oxytoca) [µg/mL] | MIC90 (Klebsiella oxytoca) [µg/mL] | MIC (Klebsiella oxytoca) [µg/mL] | MIC50 (MRSA(KAIST)) [µg/mL] | further results
CO/N=C(\C(=O)N[C@@H]1C(=O)N2C(C(=O)[O-])=C(C[n+]3ccc(C(N)=O)c4c3CCC4)CS[C@H]12)c1csc(N)n1 [Example 3] | 0.7 (≈ 1.26 µM) | 12500 (≈ 22400 µM) | 1560 (≈ 2800 µM) | 391 (≈ 701 µM) | 3120 (≈ 5600 µM) | 7 (≈ 12.6 µM) | 0.098 (≈ 0.176 µM) | 25 (≈ 44.8 µM) | 12.5 (≈ 22.4 µM) | 25 (≈ 44.8 µM) | 12.5 to 100 (≈ 22.4 to 179 µM) | 0.025 (≈ 0.0448 µM) | 0.049 (≈ 0.0879 µM) | 0.025 (≈ 0.0448 µM) | 0.049 (≈ 0.0879 µM) | 0.025 to 0.391 (≈ 0.0448 to 0.701 µM) | 0.013 (≈ 0.0233 µM) | 0.098 (≈ 0.176 µM) | 0.007 to 0.391 (≈ 0.0126 to 0.701 µM) | 6.25 (≈ 11.2 µM) | MIC ([2]; SG511, 18 h): 391 µg/mL (≈ 701 µM); MIC (Enterococcus I; read-out: range of MIC, 20 clinical strains): 0.013 to 0.195 µg/mL (≈ 0.0233 to 0.35 µM); MIC90 (MRSA(KAIST)): 50 µg/mL (≈ 89.7 µM); MIC (MRSA(KAIST)): 0.781 to 100 µg/mL (≈ 1.4 to 179 µM); MIC (Methicillin Resistant): 0.781 to 100 µg/mL (≈ 1.4 to 179 µM); MIC50 (Methicillin Resistant): 6.25 µg/mL (≈ 11.2 µM); MIC90 (Methicillin Resistant): 50 µg/mL (≈ 89.7 µM); MIC50 (Providencia rettgeri; 6 clinical strains): 0.013 µg/mL (≈ 0.0233 µM); MIC90 (Providencia rettgeri; 6 clinical strains): 0.049 µg/mL (≈ 0.0879 µM); MIC (Providencia rettgeri): 0.004 to 0.098 µg/mL (≈ 0.00717 to 0.176 µM); MIC (D StreptococcusII; 19 clinical strains): 6.25 to 100 µg/mL (≈ 11.2 to 179 µM); MIC50 (D StreptococcusII; 19 clinical strains): 25 µg/mL (≈ 44.8 µM); MIC90 (D StreptococcusII; 19 clinical strains): 100 µg/mL (≈ 179 µM); ED50 [7]: 0.29 mg/kg; LD50 (acute toxicity test): > 3000 mg/kg
CO/N=C(\C(=O)N[C@@H]1C(=O)N2C(C(=O)[O-])=C(C[n+]3cccc4c3CCC4)CS[C@H]12)c1csc(N)n1 [cefpirome, reference compound] | 4 (≈ 7.77 µM) | 25000 (≈ 48600 µM) | 3120 (≈ 6070 µM) | 391 (≈ 760 µM) | 3120 (≈ 6070 µM) | 13 (≈ 25.3 µM) | 0.098 (≈ 0.19 µM) | 25 (≈ 48.6 µM) | 25 (≈ 48.6 µM) | 50 (≈ 97.2 µM) | 12.5 to 100 (≈ 24.3 to 194 µM) | 0.025 (≈ 0.0486 µM) | 0.098 (≈ 0.19 µM) | 0.025 (≈ 0.0486 µM) | 0.049 (≈ 0.0952 µM) | 0.025 to 0.391 (≈ 0.0486 to 0.76 µM) | 0.025 (≈ 0.0486 µM) | 0.781 (≈ 1.52 µM) | 0.007 to 0.391 (≈ 0.0136 to 0.76 µM) | 12.5 (≈ 24.3 µM) | MIC ([2]; SG511, S. aureus SG 511, two-fold dilution, Muller Hinton agar, 10^7 CFU/ml, 37° C., 18 hours): 391 µg/mL (≈ 760 µM); MIC (Enterococcus I; read-out: range of MIC): 0.013 to 0.195 µg/mL (≈ 0.0253 to 0.379 µM); MIC90 (MRSA(KAIST)): 100 µg/mL (≈ 194 µM); MIC (MRSA(KAIST)): 0.781 to 100 µg/mL (≈ 1.52 to 194 µM); MIC (Methicillin Resistant): 0.781 to 100 µg/mL (≈ 1.52 to 194 µM); MIC50 (Methicillin Resistant): 12.5 µg/mL (≈ 24.3 µM); MIC90 (Methicillin Resistant): 100 µg/mL (≈ 194 µM); MIC (Providencia rettgeri): 0.004 to 0.098 µg/mL (≈ 0.00777 to 0.19 µM); MIC (D StreptococcusII): 6.25 to 100 µg/mL (≈ 12.1 to 194 µM); MIC50 (D StreptococcusII; 19 clinical strains): 50 µg/mL (≈ 97.2 µM); MIC90 (D StreptococcusII; 19 clinical strains): 100 µg/mL (≈ 194 µM); activity against Pseudomonas, in words (Pseudomonas): inferior to ceftazidime; activity against Gram-negative and Gram-positive bacteria, in words [8]: improved activity against Gram-negative and Gram-positive bacteria
